Data as given in patent publication US20250339396A1 (COSMAS THERAPEUTICS DEVELOPMENT INC., priority 2021, published 2025).

Columns and labels:
[1] = in vivo; cited from earlier work
[2] = in vivo; cited from earlier work; remark: listed apart in the source
[3] = Pharmacokinetic study in male rats (UCM924 measured in plasma); assay type: in vivo; conditions: Sprague-Dawley, rat, po, UCM924 plasmatic level, UCM924 20 mg/kg per os
Description: In vivo pharmacokinetic studies of prodrug D were carried in male rats (Sprague-Dawley, weight 210-214 grams) and male dogs (Beagles, weight 8960-9820 grams). Animals were housed under standard conditions and had free access to water and standard laboratory diet. Care and husbandry of animals were in conformity with the institutional guidelines, in compliance with national and international laws and policies (EEC Council Directive 86/609, OJL 358m, 1, Dec. 122, 1987; NIH Guide for the care and Use of Laboratory Animals, NIH Publication No. 86-23, 1985). The compounds were dissolved in water containing 40% PEG 400 at a concentration of 15 mg/ml (clear solution) for the PO dose for Dog, or in water containing 40% PEG 400 at a concentration of 12.5 mg/ml (clear solution) for the PO dose for Rat. Rats were randomly assigned to treatment groups (n=3) and received a single oral administration (50 mg/kg) of Prodrug D and the level of the active metabolite UCM924 was then measured. Serial blood samples (200 uL) were collected from caudal vein at 5, 15, 30, 60, 120, 240, 360, 480 and 1440 min after PO administration. Blood samples were collected into a prechilled commercial tube (Jiangsu Kangjian medical supplies co., LTD) containing Potassium (K2) EDTA (0.85-1.15 mg). […] UCM924 (20 mg/kg) was also administered per os in rats and IV in dogs (2 mg/kg) and it was measured in plasma. […]

[4] = Oral bioavailability and brain penetrance of UCM765 and UCM924
[5] = Stability of Prodrug D in solvents by HPLC; assay type: physicochemical; conditions: HPLC Method 2
Description: For this test, we used HPLC with different solvent systems. […] Therefore, after initial assessment, this method was used for the remaining tests. Prodrug D or UCM924 (comparator) were dissolved in the different solvents listed in the table below and, after the waiting period indicated, HPLC tests were carried out according to the above. The results are shown in the table below, in which the percentages represent the quantity of prodrug D or UCM924 detected in the samples.

[6] = Pharmacokinetic study in male Beagle dogs (UCM924 measured in plasma); assay type: in vivo; conditions: dog, UCM924 plasmatic level, UCM924 2 mg/kg IV
Description: In vivo pharmacokinetic studies of prodrug D were carried in male rats (Sprague-Dawley, weight 210-214 grams) and male dogs (Beagles, weight 8960-9820 grams). Animals were housed under standard conditions and had free access to water and standard laboratory diet. Care and husbandry of animals were in conformity with the institutional guidelines, in compliance with national and international laws and policies (EEC Council Directive 86/609, OJL 358m, 1, Dec. 122, 1987; NIH Guide for the care and Use of Laboratory Animals, NIH Publication No. 86-23, 1985). The compounds were dissolved in water containing 40% PEG 400 at a concentration of 15 mg/ml (clear solution) for the PO dose for Dog, or in water containing 40% PEG 400 at a concentration of 12.5 mg/ml (clear solution) for the PO dose for Rat. Dogs were randomly assigned to treatment groups (n=3) and received a single oral administration (15 mg/kg) through oral gavage of Prodrug D and the level of the active metabolite UCM924 was then measured. Serial blood samples (200 uL) were collected from caudal vein at 5, 15, 30, 60, 120, 240, 360, 480 and 1440 min after PO administration. […] UCM924 (20 mg/kg) was also administered per os in rats and IV in dogs (2 mg/kg) and it was measured in plasma. […]

AUC(0-t) [3]: 97.7 ± 61 ng·h/mL
Cmax [3]: 42 ± 34 ng/mL
Kp ([4]; brain): 2.5
bioavailability ([4]; in vivo, po): 6%
quantity detected in the sample by HPLC ([5]; 1N HCl, overnight at rt, pH ~0): 14.79%
quantity detected in the sample by HPLC ([5]; 40% PEG400:60% H2O, overnight at rt, pH ~7.0): 40.16%
quantity detected in the sample by HPLC ([5]; H2O, overnight at rt, pH ~7.0): 80.09%
quantity detected in the sample by HPLC ([5]; Saturated NaHCO3aq, 2 h at rt, pH ~8.5): 62.33%
AUC(0-t) [6]: 1690 ± 275 ng·h/mL
half-life [6]: 1.79 ± 0.4 h
Structure (SMILES): CC(=O)NCCN(c1ccc(F)cc1)c1cccc(Br)c1 [UCM924, N-{2-[(3-bromophenyl)-(4-fluorophenyl)amino]ethyl}acetamide]
antinociceptive properties in tests for chronic neuropathic pain [1]: potent antinociceptive properties
motor impairments in the RotaRod test [2]: did not produce any motor impairments
